Laboratory results as given in patent publication US20240109917A1 (ACTELION PHARMACEUTICALS LTD, priority 2020, published 2024).

Legend:
[1] = target: Tb-labeled inactive PDGFRβ (Homo sapiens (Human), UniProt P09619); experiment: PDGFRβ LanthaScreen Assay; assay type: binding; details: read-out: PDGFR Lantha IC50
[2] = target: His6-TEV-PDGFRβ (557-1016) (Homo sapiens (Human), UniProt P09619); experiment: PDGFRβ HTRF Assay; assay type: biochemical; details: read-out: PDGFR HTRF IC50
Outline: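 HTRF KinEASE-TK readout (665/620 nm ratio) of TK-biotin substrate phosphorylation by His-tagged PDGFRβ kinase domain. Enzyme and inhibitor preincubated 30 min, then ATP/substrate added for 3 h at room temperature before 60 min EDTA quench/detection.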

Chain of Tb-labeled inactive PDGFRβ (P09619 33-1106): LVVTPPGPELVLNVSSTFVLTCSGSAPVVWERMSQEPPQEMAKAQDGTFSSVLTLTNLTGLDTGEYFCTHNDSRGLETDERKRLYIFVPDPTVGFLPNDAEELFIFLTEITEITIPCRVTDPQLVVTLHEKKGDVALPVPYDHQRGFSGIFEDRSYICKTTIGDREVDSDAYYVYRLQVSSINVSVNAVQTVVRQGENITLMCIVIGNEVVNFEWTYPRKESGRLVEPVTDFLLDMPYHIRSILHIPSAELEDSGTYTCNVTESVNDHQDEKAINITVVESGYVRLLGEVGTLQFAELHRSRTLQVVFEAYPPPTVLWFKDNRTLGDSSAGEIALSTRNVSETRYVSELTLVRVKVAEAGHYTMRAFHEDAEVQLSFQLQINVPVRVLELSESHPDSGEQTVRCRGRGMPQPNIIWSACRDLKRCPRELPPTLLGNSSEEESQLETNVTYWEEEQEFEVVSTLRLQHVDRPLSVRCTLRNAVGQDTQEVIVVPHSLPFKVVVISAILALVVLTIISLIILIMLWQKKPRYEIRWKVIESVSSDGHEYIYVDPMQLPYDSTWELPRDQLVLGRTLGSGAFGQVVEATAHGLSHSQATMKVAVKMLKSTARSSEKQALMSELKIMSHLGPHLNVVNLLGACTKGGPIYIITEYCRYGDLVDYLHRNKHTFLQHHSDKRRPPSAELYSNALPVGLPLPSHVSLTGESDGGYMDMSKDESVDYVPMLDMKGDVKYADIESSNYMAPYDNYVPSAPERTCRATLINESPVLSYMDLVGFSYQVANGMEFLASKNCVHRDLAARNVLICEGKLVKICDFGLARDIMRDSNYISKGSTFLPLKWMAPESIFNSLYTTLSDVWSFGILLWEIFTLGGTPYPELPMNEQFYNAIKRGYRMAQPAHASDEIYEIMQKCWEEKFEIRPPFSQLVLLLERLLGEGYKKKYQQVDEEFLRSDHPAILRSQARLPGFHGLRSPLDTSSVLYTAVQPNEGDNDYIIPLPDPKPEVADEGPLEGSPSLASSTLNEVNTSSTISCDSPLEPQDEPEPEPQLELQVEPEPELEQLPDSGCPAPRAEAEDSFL
Chain of His6-TEV-PDGFRβ (557-1016) (P09619 557-1016): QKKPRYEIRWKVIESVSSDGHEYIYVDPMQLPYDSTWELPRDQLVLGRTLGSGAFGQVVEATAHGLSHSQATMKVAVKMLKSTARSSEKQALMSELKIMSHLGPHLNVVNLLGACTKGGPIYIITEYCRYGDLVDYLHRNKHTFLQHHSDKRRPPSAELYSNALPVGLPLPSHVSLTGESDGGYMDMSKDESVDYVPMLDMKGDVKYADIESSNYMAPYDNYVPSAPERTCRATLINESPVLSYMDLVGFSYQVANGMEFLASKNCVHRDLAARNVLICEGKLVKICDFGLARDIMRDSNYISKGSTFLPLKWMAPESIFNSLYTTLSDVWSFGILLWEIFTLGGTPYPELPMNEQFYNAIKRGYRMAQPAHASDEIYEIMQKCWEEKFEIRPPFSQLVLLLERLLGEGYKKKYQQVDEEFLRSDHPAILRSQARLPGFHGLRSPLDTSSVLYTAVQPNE

Q: What does the source list for `Cc1ncc(NC(=O)C[C@@H]2CCN(C(C)C)C2)cc1NC(=O)c1cnn2cc(-c3cnn(C)c3)sc12` [Example 464, (S)—N-(5-(2-(1-isopropylpyrrolidin-3-yl)acetamido)-2-methylpyridin-3-yl)-2-(1-methyl-1H-pyrazol-4-yl)pyrazolo[5,1-b]thiazole-7-carboxamide]?
A: IC50 [1]: 145 nM; IC50 [2]: 5.2 nM

Q: `Cc1ncc(NC(=O)CN2CCCC2(C)C)cc1NC(=O)c1cnn2cc(-c3cnn(CCO)c3)sc12` [Example 447, N-(5-(2-(2,2-dimethylpyrrolidin-1-yl)acetamido)-2-methylpyridin-3-yl)-2-(1-(2-hydroxyethyl)-1H-pyrazol-4-yl)pyrazolo[5,1-b]thiazole-7-carboxamide] was tested. Which IC50 [1] did it give?
A: 3.7 nM

Q: What about the IC50 [2] of the same compound?
A: 0.5 nM

Q: `Cc1ncc(NC(=O)CN2CC(C)(C)C2)cc1NC(=O)c1cnn2cc(-c3cnn4c3COCC4)sc12` [Example 476, 2-(6,7-dihydro-4H-pyrazolo[5,1-c][1,4]oxazin-3-yl)-N-(5-(2-(3,3-dimethylazetidin-1-yl)acetamido)-2-methylpyridin-3-yl)pyrazolo[5,1-b]thiazole-7-carboxamide] was tested. Which IC50 [1] did it give?
A: 1.7 nM

Q: And the IC50 [2]?
A: 0.2 nM

Q: Which results are given for `Cc1ncc(C(=O)NCCN2CCCC23CCC3)cc1NC(=O)c1cnn2cc(-c3cnn4c3OCCC4)sc12` [Example 478, N-(5-((2-(5-azaspiro[3.4]octan-5-yl)ethyl)carbamoyl)-2-methylpyridin-3-yl)-2-(6,7-dihydro-5H-pyrazolo[5,1-b][1,3]oxazin-3-yl)pyrazolo[5,1-b]thiazole-7-carboxamide]?
A: IC50 [1]: 3 nM; IC50 [2]: 0.3 nM

Q: Which IC50 [1] does the source give for `Cc1ncc(NC(=O)CN2CC(C)(C)C2)cc1NC(=O)c1cnn2cc(-c3cnn4c3CCC4)sc12` [Example 409, 2-(5,6-dihydro-4H-pyrrolo[1,2-b]pyrazol-3-yl)-N-(5-(2-(3,3-dimethylazetidin-1-yl)acetamido)-2-methylpyridin-3-yl)pyrazolo[5,1-b]thiazole-7-carboxamide] here?
A: 1.3 nM

Q: What about the IC50 [2] of the same compound?
A: 0.2 nM

Q: How did the IC50 [1] turn out when `Cc1ncc(NC(=O)CNCC2CC2)cc1NC(=O)c1cnn2cc(-c3cnn4c3OCCC4)sc12` [Example 453, N-(5-(2-((cyclopropylmethyl)amino)acetamido)-2-methylpyridin-3-yl)-2-(6,7-dihydro-5H-pyrazolo[5,1-b][1,3]oxazin-3-yl)pyrazolo[5,1-b]thiazole-7-carboxamide] was run?
A: 5.8 nM

Q: And the IC50 [2]?
A: 0.6 nM

Q: For `Cc1ncc(C(=O)NCCN2CCCC2(C)C)cc1NC(=O)c1cnn2cc(-c3cnn4c3CCC4)sc12` [Example 481, 2-(5,6-dihydro-4H-pyrrolo[1,2-b]pyrazol-3-yl)-N-(5-((2-(2,2-dimethylpyrrolidin-1-yl)ethyl)carbamoyl)-2-methylpyridin-3-yl)pyrazolo[5,1-b]thiazole-7-carboxamide], which IC50 [1] is on record?
A: 2 nM

Q: What about the IC50 [2] of the same compound?
A: 0.3 nM

Q: What does the source list for `Cc1ncc(NC(=O)CNC2CCCC2)cc1NC(=O)c1cnn2cc(-c3cnn4c3OCCC4)sc12` [Example 421, N-(5-(2-(cyclopentylamino)acetamido)-2-methylpyridin-3-yl)-2-(6,7-dihydro-5H-pyrazolo[5,1-b][1,3]oxazin-3-yl)pyrazolo[5,1-b]thiazole-7-carboxamide]?
A: IC50 [1]: 2 nM; IC50 [2]: 0.2 nM

Q: How did the IC50 [1] turn out when `CCOc1ncccc1-c1cn2ncc(C(=O)Nc3cc(NC(=O)CN4CC(C)(C)C4)cnc3C)c2s1` [Example 436, N-(5-(2-(3,3-Dimethylazetidin-1-yl)acetamido)-2-methylpyridin-3-yl)-2-(2-ethoxypyridin-3-yl)pyrazolo[5,1-b]thiazole-7-carboxamide] was run?
A: 0.9 nM

Q: And the IC50 [2]?
A: 0.1 nM

Q: For `Cc1ncc(C(=O)NCCN2CCCC23CCC3)cc1NC(=O)c1cnn2cc(-c3cnn4c3CCC4)sc12` [Example 461, N-(5-((2-(5-azaspiro[3.4]octan-5-yl)ethyl)carbamoyl)-2-methylpyridin-3-yl)-2-(5,6-dihydro-4H-pyrrolo[1,2-b]pyrazol-3-yl)pyrazolo[5,1-b]thiazole-7-carboxamide], which IC50 [1] is on record?
A: 0.8 nM

Q: What about the IC50 [2] of the same compound?
A: 0.2 nM

Q: With `Cc1cc(C(=O)NCCN2CCCC23CC3)sc1NC(=O)c1cnn2cc(-c3cnn(C)c3)sc12` [Example 37, N-(5-((2-(4-azaspiro[2.4]heptan-4-yl)ethyl)carbamoyl)-3-methylthiophen-2-yl)-2-(1-methyl-1H-pyrazol-4-yl)pyrazolo[5,1-b]thiazole-7-carboxamide] as the compound, how does the IC50 [1] read?
A: 892 nM

Q: What about the IC50 [2] of the same compound?
A: 22.8 nM

Q: `Cc1ncc(NC(=O)CN2CCCC2(C)C)cc1NC(=O)c1cnn2cc(-c3cccnc3OCCF)sc12` [Example 448, N-(5-(2-(2,2-dimethylpyrrolidin-1-yl)acetamido)-2-methylpyridin-3-yl)-2-(2-(2-fluoroethoxy)pyridin-3-yl)pyrazolo[5,1-b]thiazole-7-carboxamide] was tested. Which IC50 [1] did it give?
A: 1.8 nM

Q: What about the IC50 [2] of the same compound?
A: 0.2 nM

Q: `Cc1ncc(C(=O)NCC2CCCN2C)cc1NC(=O)c1cnn2cc(-c3cnn4c3OCCC4)sc12` (centres unmarked) [Example 470, 2-(6,7-dihydro-5H-pyrazolo[5,1-b][1,3]oxazin-3-yl)-N-(2-methyl-5-(((1-methylpyrrolidin-2-yl)methyl)carbamoyl)pyridin-3-yl)pyrazolo[5,1-b]thiazole-7-carboxamide] was tested. Which IC50 [1] did it give?
A: 6.8 nM

Q: What about the IC50 [2] of the same compound?
A: 0.5 nM

Q: Which results are given for `Cc1ncc(NC(=O)CN2CC(C)(C)C2)cc1NC(=O)c1cnn2cc(-c3cnn4c3OCCC4)sc12` [Example 39, 2-(6,7-dihydro-5H-pyrazolo[5,1-b][1,3]oxazin-3-yl)-N-(5-(2-(3,3-dimethylazetidin-1-yl)acetamido)-2-methylpyridin-3-yl)pyrazolo[5,1-b]thiazole-7-carboxamide]?
A: IC50 [1]: 1.9 nM; IC50 [2]: 0.3 nM

Q: `Cc1ncc(NC(=O)CN2CC(C)(C)C2)cc1NC(=O)c1cnn2cc(-c3cnn(C(F)F)c3)sc12` [Example 428, 2-(1-(difluoromethyl)-1H-pyrazol-4-yl)-N-(5-(2-(3,3-dimethylazetidin-1-yl)acetamido)-2-methylpyridin-3-yl)pyrazolo[5,1-b]thiazole-7-carboxamide] was tested. Which IC50 [1] did it give?
A: 17.3 nM

Q: What about the IC50 [2] of the same compound?
A: 0.8 nM

Q: Which IC50 [1] does the source give for `Cc1ncc(NC(=O)CN2CCC[C@@H]2C)cc1NC(=O)c1cnn2cc(-c3cnn4c3CCC4)sc12` [Example 416, (S)-2-(5,6-dihydro-4H-pyrrolo[1,2-b]pyrazol-3-yl)-N-(2-methyl-5-(2-(2-methylpyrrolidin-1-yl)acetamido)pyridin-3-yl)pyrazolo[5,1-b]thiazole-7-carboxamide] here?
A: 1.6 nM

Q: What about the IC50 [2] of the same compound?
A: 0.2 nM

Q: For `CCCNCC(=O)Nc1cnc(C)c(NC(=O)c2cnn3cc(-c4cnn5c4OCCC5)sc23)c1` [Example 455, 2-(6,7-dihydro-5H-pyrazolo[5,1-b][1,3]oxazin-3-yl)-N-(2-methyl-5-(2-(propylamino)acetamido)pyridin-3-yl)pyrazolo[5,1-b]thiazole-7-carboxamide], which IC50 [1] is on record?
A: 3.3 nM

Q: What about the IC50 [2] of the same compound?
A: 0.6 nM

Q: For `COCCn1cc(-c2cn3ncc(C(=O)Nc4cc(NC(=O)CCC5CCCN5C(C)C)cnc4C)c3s2)cn1` (centres unmarked) [Example 463, N-(5-(3-(1-isopropylpyrrolidin-2-yl)propanamido)-2-methylpyridin-3-yl)-2-(1-(2-methoxyethyl)-1H-pyrazol-4-yl)pyrazolo[5,1-b]thiazole-7-carboxamide], which IC50 [1] is on record?
A: 11 nM

Q: And the IC50 [2]?
A: 0.7 nM

Q: For `Cc1ncc(NC(=O)CC2CN(C)C2)cc1NC(=O)c1cnn2cc(-c3cnn4c3CCC4)sc12` [Example 427, 2-(5,6-dihydro-4H-pyrrolo[1,2-b]pyrazol-3-yl)-N-(2-methyl-5-(2-(1-methylazetidin-3-yl)acetamido)pyridin-3-yl)pyrazolo[5,1-b]thiazole-7-carboxamide], which IC50 [1] is on record?
A: 150 nM

Q: What about the IC50 [2] of the same compound?
A: 2.1 nM

Q: Which IC50 [1] does the source give for `Cc1ncc(NC(=O)CN2CCCC2(C)C)cc1NC(=O)c1cnn2cc(-c3cccn(CCF)c3=O)sc12` [Example 449, N-(5-(2-(2,2-dimethylpyrrolidin-1-yl)acetamido)-2-methylpyridin-3-yl)-2-(1-(2-fluoroethyl)-2-oxo-1,2-dihydropyridin-3-yl)pyrazolo[5,1-b]thiazole-7-carboxamide] here?
A: 9.1 nM

Q: What about the IC50 [2] of the same compound?
A: 0.7 nM

Q: `Cc1ncc(NC(=O)CN2CCCC2(C)C)cc1NC(=O)c1cnn2cc(-c3cn(C)nc3C)sc12` [Example 444, 2-(1,3-Dimethyl-1H-pyrazol-4-yl)-N-(5-(2-(2,2-dimethylpyrrolidin-1-yl)acetamido)-2-methylpyridin-3-yl)pyrazolo[5,1-b]thiazole-7-carboxamide] was tested. Which IC50 [1] did it give?
A: 1.8 nM

Q: What about the IC50 [2] of the same compound?
A: 0.2 nM

Q: How did the IC50 [1] turn out when `Cc1ncc(NC(=O)CN2CCC2)cc1NC(=O)c1cnn2cc(-c3cnn4c3OCCC4)sc12` [Example 412, N-(5-(2-(azetidin-1-yl)acetamido)-2-methylpyridin-3-yl)-2-(6,7-dihydro-5H-pyrazolo[5,1-b][1,3]oxazin-3-yl)pyrazolo[5,1-b]thiazole-7-carboxamide] was run?
A: 34.6 nM

Q: What about the IC50 [2] of the same compound?
A: 1.4 nM

Q: What does the source list for `Cc1ncc(NC(=O)CN2CC(C)(C)C2)cc1NC(=O)c1cnn2cc(-c3cccnc3OC(F)(F)F)sc12` [Example 437, N-(5-(2-(3,3-dimethylazetidin-1-yl)acetamido)-2-methylpyridin-3-yl)-2-(2-(trifluoromethoxy)pyridin-3-yl)pyrazolo[5,1-b]thiazole-7-carboxamide]?
A: IC50 [1]: 4.6 nM; IC50 [2]: 0.4 nM

Q: Which results are given for `Cc1ncc(NC(=O)CNCC2CC2)cc1NC(=O)c1cnn2cc(-c3cnn4c3CCC4)sc12` [Example 454, N-(5-(2-((cyclopropylmethyl)amino)acetamido)-2-methylpyridin-3-yl)-2-(5,6-dihydro-4H-pyrrolo[1,2-b]pyrazol-3-yl)pyrazolo[5,1-b]thiazole-7-carboxamide]?
A: IC50 [1]: 4.6 nM; IC50 [2]: 0.4 nM

Q: How did the IC50 [1] turn out when `Cc1ncc(C(=O)NCCN2CC(C)(C)C2)cc1NC(=O)c1cnn2cc(-c3cnn4c3CCC4)sc12` [Example 482, 2-(5,6-dihydro-4H-pyrrolo[1,2-b]pyrazol-3-yl)-N-(5-((2-(3,3-dimethylazetidin-1-yl)ethyl)carbamoyl)-2-methylpyridin-3-yl)pyrazolo[5,1-b]thiazole-7-carboxamide] was run?
A: 1.6 nM

Q: What about the IC50 [2] of the same compound?
A: 0.2 nM
